# Assay results published in PMC11530130, “Peripherally restricted PICK1 inhibitor mPD5 ameliorates pain behaviors in murine inflammatory and neuropathic pain models” (JCI Insight, 2024).
# Values joined by “and” are separate entries in the source; they are usually repeats but may differ in a detail not shown here. Equal values may be shown once.
# Tests used:
# [1] = system: mice, CFA model of inflammatory pain; test: Single exposure place preference (sePP), CFA mice; type: in vivo, mouse; design: time spent in the paired compartment, individual mice: reference not given here
# Method: On days 6-8, the escape hole was moved
# 90 degrees, and all mice went through the second bout of training. On day nine, a second probe trial was performed testing the reversal learning of the mice.
# Cancer induced bone pain was induced as described in the “Induction of cancer induced bone pain (CIBP model)"-section. For the assessment of limb use, all mice from one cage were placed in an empty transparent plastic box and left for ten min to habituate. One mouse at a time was moved by tunnel handling or scooping to an identical plastic box for the limb use test. […]
# gait, 3 Insignificant limping, 2 Significant limping and shift in bodyweight towards the healthy limb 1 Significant limping and partial lack of use of ipsilateral leg 0 Total lack of use of ipsilateral leg. A score of 0 was used as a humane endpoint. Urine and faeces were cleaned from the plastic box with a dry paper towel between mice from the same cage, and a new plastic box was used for mice from different cages. The limb use test was video filmed for later […]
# Assessment of static weight bearing. […]
# Initial perception of the drugs was measured by single exposure place preference experiments performed in an elongated three compartment apparatus (67.5 cm x 24 cm) with a biased design of different floor textures and wall patterns and a neutral zone in the middle. […]
# [2] = Size exclusion chromatography (SEC), self-assembly; type: physicochemical; settings: Superdex200 Increase 10/300; independent of initial concentration
# Method: SUPPORTING INFORMATION: Method Section.
# Sex as a biological variable.
# All peptides were ordered from WuXI AppTec (Shanghai, China) or TAG-Copenhagen […]
# Protein expression and purification.
# Full length rat PICK1 (pET41) was, as described earlier (1), expressed in BL21-DE3-pLysS and grown at 37 °C, induced at OD600= 0.6 with 1 mM IPTG, and grown for 16 hours at 20 °C.
# Cultures were harvested and re-suspended in 50 mM Tris, 125 mM NaCl, 2 mM DTT (Sigma), 1% Triton X-100 (Sigma), 20 µg/mL DNAse 1 and half a tablet of cOmplete protease inhibitor cocktail (Roche) pr. 1 L culture. The resuspended pellets were frozen at -80 °C for later purification. The lysate was cleared by centrifugation (36,000 x g for 30 min at 4 °C), and the supernatant was incubated with Glutathione-Sepharose 4B beads (GE Healthcare) for two hours at 4 °C under gentle rotation and then centrifuged at 4000 x g for 5 min. The supernatant was removed, and the beads were washed twice in 35 mL 50 mM Tris, 125 mM NaCl, 2 mM DTT, and 0.01% Triton-X100. The beads were transferred to PD-10 Bio-Spin® Chromatography columns (Bio-Rad) and washed with an additional 3 column volumes. Each column was sealed and 0.075 U/µL, Novagen® was added for cleavage O/N at 4 °C under gentle rotation. PICK1 was eluted on ice and concentration was measured on a NanoDrop 3000. […]
# Size Exclusion Chromatography (SEC). […]
# [3] = target: human serum albumin (HSA) (Homo sapiens, UniProt P02768); test: FIDA binding to human serum albumin
# human serum albumin (HSA), sequence (P02768 25-609): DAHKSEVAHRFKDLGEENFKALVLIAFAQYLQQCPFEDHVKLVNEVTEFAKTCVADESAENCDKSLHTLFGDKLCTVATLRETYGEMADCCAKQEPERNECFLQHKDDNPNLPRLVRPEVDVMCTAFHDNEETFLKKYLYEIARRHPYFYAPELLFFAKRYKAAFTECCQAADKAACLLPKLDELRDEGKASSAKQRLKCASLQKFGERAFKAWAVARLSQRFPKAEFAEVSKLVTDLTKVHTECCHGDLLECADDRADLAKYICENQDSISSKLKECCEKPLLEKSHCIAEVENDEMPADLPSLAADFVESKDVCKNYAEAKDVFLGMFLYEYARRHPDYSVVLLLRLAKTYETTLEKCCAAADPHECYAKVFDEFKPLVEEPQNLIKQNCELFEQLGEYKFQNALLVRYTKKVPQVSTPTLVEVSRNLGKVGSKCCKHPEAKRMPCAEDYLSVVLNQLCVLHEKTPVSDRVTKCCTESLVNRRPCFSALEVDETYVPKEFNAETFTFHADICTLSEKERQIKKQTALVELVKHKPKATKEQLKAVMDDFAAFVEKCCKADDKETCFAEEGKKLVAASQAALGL
# Method: Flow-induced dispersion analysis (FIDA).
# FIDA was carried out using a fluorescently labelled (AF488-NHS) mPD5 analogue, and
# (100 nM), using the standard protocol recommended by the manufacturer, in short, mPD5 and
# sample was injected into the capillary followed by a buffer injection. The diffusion of the
# curve smoothing. Resulting hydrodynamic radius was plotted using GraphPad Prism 8.3.
smiles,measurement,setting,value
"CCCCCCCCCCCCCC(=O)N(CCOCCOCCC(=O)N[C@@H](Cc1c[nH]cn1)C(=O)N[C@@H](Cc1c[nH]c2ccccc12)C(=O)N[C@@H](CC(C)C)C(=O)N[C@@H](CCCCN)C(=O)N[C@H](C(=O)O)C(C)C)CCOCCOCCC(=O)N[C@@H](Cc1c[nH]cn1)C(=O)N[C@@H](Cc1c[nH]c2ccccc12)C(=O)N[C@@H](CC(C)C)C(=O)N[C@@H](CCCCN)C(=O)N[C@H](C(=O)O)C(C)C [mPD5, myristoyl-NPEG4-(HWLKV)2]",time in the paired compartment compared with the PBS animals (sePP),"[1]; CFA animals, s.c. 30 μmol/kg in the gray (paired) compartment",significantly more time in the paired compartment
same,"time spent in the paired compartment, individual mice",[1]; CFA mice conditioned with 30 μmol/kg,1.043 and 0.9432 and 1.1179 and 0.8953 and 1.389 and 1.4664 and 0.991 and 1.199 and 1.802 and 0.8487 and 1.092 and 1.425
same,SEC elution volume,[2],approximately 14.2 mL
same,"HSA species bound, from RH",[3],binds to dimeric HSA
